According to ChEMBL document CHEMBL1201862, “PubChem BioAssay data set” (2004):
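Grown in 96-well plates, cells were treated for 48 hours with each compound at five concentrations. Insufficient inhibition: endpoint recorded as highest concentration tested. The concentration for 50% growth inhibition is given as GI50.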 Activity calls are given as the source filed them. Rule as the data show it: active = GI50 up to about 1.1 µM and inactive = higher.

Columns and labels:
Test in all cases: growth of human tumour cells (NCI), 48 h
786-0 = system: 786-0
A498 = system: A498
A549 = system: A549
ACHN = system: ACHN
CAKI-1 = system: CAKI-1
CCRF-CEM = system: CCRF-CEM
COLO 205 = system: COLO 205
DLD-1 = system: DLD-1
DMS-114 = system: DMS-114
DMS-273 = system: DMS-273
EKVX = system: EKVX
HCC 2998 = system: HCC 2998
HCT-116 = system: HCT-116
HCT-15 = system: HCT-15
HL-60 = system: HL-60
HOP-62 = system: HOP-62
HOP-92 = system: HOP-92
HT-29 = system: HT-29
IGROV-1 = system: IGROV-1
K562 = system: K562
KM-20L2 = system: KM-20L2
KM12 = system: KM12
LOX IMVI = system: LOX IMVI
LXFL 529 = system: LXFL 529
M14 = system: M14
M19-MEL = system: M19-MEL
MOLT-4 = system: MOLT-4
Malme-3M = system: Malme-3M
NCI-H23 = system: NCI-H23
NCI-H460 = system: NCI-H460
NCI-H522 = system: NCI-H522
OVCAR-3 = system: OVCAR-3
OVCAR-4 = system: OVCAR-4
OVCAR-5 = system: OVCAR-5
OVCAR-8 = system: OVCAR-8
SF-268 = system: SF-268
SF-295 = system: SF-295
SF-539 = system: SF-539
SK-MEL-2 = system: SK-MEL-2
SK-MEL-5 = system: SK-MEL-5
SK-OV-3 = system: SK-OV-3
SN12C = system: SN12C
SNB-19 = system: SNB-19
SNB-75 = system: SNB-75
SNB-78 = system: SNB-78
SR = system: SR
SW-620 = system: SW-620
TK-10 = system: TK-10
U-251 = system: U-251
UACC-257 = system: UACC-257
UACC-62 = system: UACC-62
UO-31 = system: UO-31
XF498 = system: XF498
RPMI-8226 = system: RPMI-8226
RXF 393 = system: RXF 393
SK-MEL-28 = system: SK-MEL-28
HOP-18 = system: HOP-18
NCI-H226 = system: NCI-H226

## C=CCn1c(=S)sc2c(O)ncnc21
786-0
  GI50: > 100 µM (inactive)
A498
  GI50: > 100 µM (inactive)
A549
  GI50: > 100 µM (inactive)
ACHN
  GI50: > 100 µM (inactive)
CAKI-1
  GI50: > 100 µM (inactive)
CCRF-CEM
  GI50: > 100 µM (inactive)
COLO 205
  GI50: > 100 µM (inactive)
DLD-1
  GI50: > 100 µM (inactive)
DMS-114
  GI50: > 100 µM (inactive)
DMS-273
  GI50: > 100 µM (inactive)
EKVX
  GI50: > 100 µM (inactive)
HCC 2998
  GI50: > 100 µM (inactive)
HCT-116
  GI50: > 100 µM (inactive)
HCT-15
  GI50: > 100000 nM
HL-60
  GI50: > 100 µM (inactive)
HOP-62
  GI50: > 100 µM (inactive)
HOP-92
  GI50: 94 µM (inactive)
HT-29
  GI50: > 100 µM (inactive)
IGROV-1
  GI50: > 100 µM (inactive)
K562
  GI50: > 100 µM (inactive)
KM-20L2
  GI50: > 100 µM (inactive)
KM12
  GI50: > 100 µM (inactive)
LOX IMVI
  GI50: > 100 µM (inactive)
LXFL 529
  GI50: > 100 µM (inactive)
M14
  GI50: > 100 µM (inactive)
M19-MEL
  GI50: > 100 µM (inactive)
MOLT-4
  GI50: > 100 µM (inactive)
Malme-3M
  GI50: > 100 µM (inactive)
NCI-H23
  GI50: > 100 µM (inactive)
NCI-H460
  GI50: > 100 µM (inactive)
NCI-H522
  GI50: > 100 µM (inactive)
OVCAR-3
  GI50: > 100 µM (inactive)
OVCAR-4
  GI50: > 100 µM (inactive)
OVCAR-5
  GI50: > 100 µM (inactive)
OVCAR-8
  GI50: > 100 µM (inactive)
SF-268
  GI50: > 100 µM (inactive)
SF-295
  GI50: > 100 µM (inactive)
SF-539
  GI50: > 100 µM (inactive)
SK-MEL-2
  GI50: > 100 µM (inactive)
SK-MEL-5
  GI50: > 100 µM (inactive)
SK-OV-3
  GI50: > 100 µM (inactive)
SN12C
  GI50: > 100 µM (inactive)
SNB-19
  GI50: > 100 µM (inactive)
SNB-75
  GI50: 61.2 µM (inactive)
SNB-78
  GI50: > 100 µM (inactive)
SR
  GI50: > 100 µM (inactive)
SW-620
  GI50: > 100 µM (inactive)
TK-10
  GI50: > 100 µM (inactive)
U-251
  GI50: 48.8 µM (inactive)
UACC-257
  GI50: > 100 µM (inactive)
UACC-62
  GI50: > 100 µM (inactive)
UO-31
  GI50: > 100 µM (inactive)
XF498
  GI50: > 100 µM (inactive)

## CC(=O)Nc1ccc(S(=O)(=O)NN(C)S(=O)(=O)c2ccc(C)cc2)cc1
786-0
  GI50: > 100 µM (inactive)
A498
  GI50: > 100 µM (inactive)
A549
  GI50: > 100 µM (inactive)
ACHN
  GI50: > 100 µM (inactive)
CAKI-1
  GI50: > 100 µM (inactive)
CCRF-CEM
  GI50: > 100 µM (inactive)
COLO 205
  GI50: > 100 µM (inactive)
DLD-1
  GI50: > 100 µM (inactive)
DMS-114
  GI50: > 100 µM (inactive)
EKVX
  GI50: > 100 µM (inactive)
HCC 2998
  GI50: > 100 µM (inactive)
HCT-116
  GI50: > 100 µM (inactive)
HL-60
  GI50: > 100 µM (inactive)
HOP-62
  GI50: > 100 µM (inactive)
HOP-92
  GI50: > 100 µM (inactive)
HT-29
  GI50: > 100 µM (inactive)
IGROV-1
  GI50: > 100 µM (inactive)
K562
  GI50: > 100 µM (inactive)
KM-20L2
  GI50: > 100 µM (inactive)
KM12
  GI50: > 100 µM (inactive)
M14
  GI50: > 100 µM (inactive)
M19-MEL
  GI50: > 100 µM (inactive)
MOLT-4
  GI50: > 100 µM (inactive)
Malme-3M
  GI50: > 100 µM (inactive)
NCI-H23
  GI50: > 100 µM (inactive)
NCI-H460
  GI50: > 100 µM (inactive)
NCI-H522
  GI50: > 100 µM (inactive)
OVCAR-3
  GI50: > 100 µM (inactive)
OVCAR-4
  GI50: > 100 µM (inactive)
OVCAR-5
  GI50: > 100 µM (inactive)
OVCAR-8
  GI50: > 100 µM (inactive)
RPMI-8226
  GI50: > 100 µM (inactive)
RXF 393
  GI50: > 100 µM (inactive)
SF-268
  GI50: > 100 µM (inactive)
SF-295
  GI50: > 100 µM (inactive)
SF-539
  GI50: > 100 µM (inactive)
SK-MEL-28
  GI50: > 100 µM (inactive)
SK-MEL-2
  GI50: > 100 µM (inactive)
SK-MEL-5
  GI50: > 100 µM (inactive)
SK-OV-3
  GI50: > 100 µM (inactive)
SN12C
  GI50: > 100 µM (inactive)
SNB-19
  GI50: > 100 µM (inactive)
SR
  GI50: > 100 µM (inactive)
SW-620
  GI50: > 100 µM (inactive)
TK-10
  GI50: > 100 µM (inactive)
UACC-257
  GI50: > 100 µM (inactive)
UACC-62
  GI50: > 100 µM (inactive)
UO-31
  GI50: > 100 µM (inactive)

## N=S(c1ccccc1[N+](=O)[O-])c1ccccc1[N+](=O)[O-]
786-0
  GI50: 1.95 µM (inactive)
A498
  GI50: 16.6 µM (inactive)
A549
  GI50: 6.67 µM (inactive)
ACHN
  GI50: 1.77 µM (inactive)
CAKI-1
  GI50: 3.3 µM (inactive)
CCRF-CEM
  GI50: 0.687 µM (active)
COLO 205
  GI50: 1.95 µM (inactive)
DMS-273
  GI50: 3.05 µM (inactive)
EKVX
  GI50: 7.73 µM (inactive)
HCC 2998
  GI50: 5.32 µM (inactive)
HCT-116
  GI50: 1.5 µM (inactive)
HCT-15
  GI50: 1620 nM
HOP-18
  GI50: 5.3 µM (inactive)
HOP-62
  GI50: 5.96 µM (inactive)
HOP-92
  GI50: 1.98 µM (inactive)
IGROV-1
  GI50: 2.34 µM (inactive)
KM12
  GI50: 6.65 µM (inactive)
LOX IMVI
  GI50: 0.944 µM (active)
LXFL 529
  GI50: 2.22 µM (inactive)
M14
  GI50: 2.09 µM (inactive)
M19-MEL
  GI50: 2.43 µM (inactive)
MOLT-4
  GI50: 2.61 µM (inactive)
Malme-3M
  GI50: 3.26 µM (inactive)
NCI-H226
  GI50: 5.6 µM (inactive)
NCI-H23
  GI50: 5.26 µM (inactive)
NCI-H522
  GI50: 0.561 µM (active)
OVCAR-3
  GI50: 1.5 µM (inactive)
OVCAR-4
  GI50: 0.553 µM (active)
OVCAR-5
  GI50: 6.08 µM (inactive)
OVCAR-8
  GI50: 3.65 µM (inactive)
RPMI-8226
  GI50: 2.08 µM (inactive)
RXF 393
  GI50: 4.06 µM (inactive)
SF-268
  GI50: 2.37 µM (inactive)
SF-539
  GI50: 4.58 µM (inactive)
SK-MEL-28
  GI50: 3.7 µM (inactive)
SK-MEL-2
  GI50: 4.84 µM (inactive)
SK-MEL-5
  GI50: 3.2 µM (inactive)
SK-OV-3
  GI50: 6.27 µM (inactive)
SN12C
  GI50: 1.72 µM (inactive)
SNB-19
  GI50: 8.07 µM (inactive)
SNB-75
  GI50: 6.34 µM (inactive)
SNB-78
  GI50: 2.52 µM (inactive)
TK-10
  GI50: 2.69 µM (inactive)
UACC-257
  GI50: 2.54 µM (inactive)
UACC-62
  GI50: 4.34 µM (inactive)
UO-31
  GI50: 3.08 µM (inactive)

## COc1cc(C2c3cc4c(cc3[C@@H](NCCN3CCOCC3)C3COC(=O)[C@H]23)OCO4)cc(OC)c1O (stereo not given in full)
786-0
  GI50: 2.1 µM (inactive)
CAKI-1
  GI50: 2.08 µM (inactive)
DLD-1
  GI50: 5.45 µM (inactive)
DMS-273
  GI50: 0.805 µM (active)
EKVX
  GI50: 16.4 µM (inactive)
HCC 2998
  GI50: 2.44 µM (inactive)
HCT-116
  GI50: 2.86 µM (inactive)
HCT-15
  GI50: 2810 nM
HOP-18
  GI50: 4.52 µM (inactive)
HOP-62
  GI50: 0.782 µM (active)
HOP-92
  GI50: 1.31 µM (inactive)
HT-29
  GI50: 5.73 µM (inactive)
IGROV-1
  GI50: 5.52 µM (inactive)
K562
  GI50: 3.01 µM (inactive)
KM-20L2
  GI50: 5.2 µM (inactive)
KM12
  GI50: 4.01 µM (inactive)
LOX IMVI
  GI50: 1.77 µM (inactive)
LXFL 529
  GI50: > 17.5 µM (inactive)
M14
  GI50: 3.98 µM (inactive)
Malme-3M
  GI50: 3.76 µM (inactive)
NCI-H522
  GI50: 3.16 µM (inactive)
OVCAR-3
  GI50: 4.13 µM (inactive)
OVCAR-4
  GI50: > 17.5 µM (inactive)
OVCAR-8
  GI50: 3.05 µM (inactive)
RXF 393
  GI50: 2.9 µM (inactive)
SF-268
  GI50: 2.06 µM (inactive)
SF-295
  GI50: 2.49 µM (inactive)
SF-539
  GI50: 0.993 µM (active)
SK-MEL-28
  GI50: 3.66 µM (inactive)
SK-MEL-2
  GI50: 4.89 µM (inactive)
SNB-19
  GI50: 4.89 µM (inactive)
SNB-78
  GI50: > 17.5 µM (inactive)
SW-620
  GI50: 2.08 µM (inactive)
TK-10
  GI50: 5.56 µM (inactive)
U-251
  GI50: 1.26 µM (inactive)
UACC-257
  GI50: 4.4 µM (inactive)
UACC-62
  GI50: 2.09 µM (inactive)
UO-31
  GI50: 2.94 µM (inactive)
